Assays:
platelets [1] = test: Platelet thrombus formation on collagen surface under arterial flow, heparin-anticoagulated whole blood; type: cell-based, human; details: heparin 10 U/mL; shear rate 1,000 s-1; FN-439 3 μM, RWJ-56110 1 μM, pepducins 3 μM, aspirin 1 mM
Experimental: Following incubation with inhibitors, the blood was perfused over a glass slide coated with fibrillar collagen type I.
A flow chamber (Glycotech) with Type-I fibrillar collagen-coated glass slides was mounted on the stage of an IMT-2 inverted microscope (Olympus) equipped with Retiga 1300 digital camera (QImaging) and 40× objective. One of the flow chamber inlets was connected to a syringe pump (Harvard Apparatus) calibrated to create a shear rate of 1,000^s-1. The whole blood pretreated with the various pharmacologic inhibitors was then perfused over the collagen-coated glass slide. After 2-15 min of perfusion, blood was removed from the flow chamber by gentle displacement with PIPES buffer and images of 8-10 fields were acquired using OpenLab software (Improvision). Acquired images were further analyzed using NIH Image 1.63 software. Images were first sharpened and the edges of separate platelets and platelet aggregates were determined. Following the adjustment of threshold, images were converted into the binary format, and the particle analysis function was activated to highlight the regions covered by platelets with the sensitivity set to one single adherent thrombocyte. For the conversion of pixels into square micrometers, a calibration curve was built using 2.5, 6, 20, 25, and 45 μm polystyrene beads (Polyscience) using acquisition conditions identical to the experimental. The mean area of formed thrombus was determined at 7 min. Area measurements in FIG. 6B represent the mean±s.e. of three separate experiments from five different blood donors.

platelets [2] = test: Collagen-dependent aggregation of gel-filtered human platelets (light transmittance); type: cell-based; details: 5 μg/ml collagen; 1,10-PA 100 μM, MMP-200 200 nM, FN-439 3 μM, RWJ-56110 1 μM, PAR1 Ab 75 μg/ml, pepducins 3 μM, PPACK 200 μM, hirudin 1 U/ml
Experimental: Platelet pellets and their supernatants were prepared as follows. […] following established informed consent procedures. […] Alternatively, whole blood was obtained from Hartley Sprague guinea pigs (drawn from the vena cava) into 3% citrate plus 10 U/ml heparin. Washed platelets from the guinea pigs were prepared in PIPES buffer. Platelet aggregation was measured with a Chronolog 560VS/490-2D aggregometer using modified PIPES buffer as a blank. Samples were incubated for 5 min in the presence of inhibitors and 1.8 mM CaCl2 prior to addition of agonist. All reactions were in final volumes of 250 μl at 37° C. while stirring at 900 rpm.
The effect of pharmacologic blockage of metalloproteases or PAR1 on collagen-dependent platelet aggregation was then tested (see FIG. 5). Gel-filtered platelets from healthy individuals (supplemented with 0.3 mg/ml fibrinogen) were challenged with 5 μg/ml collagen in the presence or absence (0.2% DMSO vehicle) of the indicated inhibitors and allowed to stir at 900 rpm in an aggregometer cuvette (250 μL) at 37° C.
In FIG. 5A, platelet aggregation was monitored by light transmittance.

MAPKAP-K2 = test: Collagen activation of phospho-MAPKAP-K2 in platelets (data not shown); type: cell-based, human
platelets [3] = test: Clot retraction assay in human platelet-rich plasma, collagen initiated; type: cell-based; details: 2.5-5 μg/ml collagen (titration 1-20 μg/ml); FN-439 5 μM, RWJ-56110 1 μM, MMP9/13 Inh 10 nM; 90 or 240 min
Experimental: Platelet rich plasma (PRP) was isolated from human whole blood anti-coagulated with 4% sodium citrate. Clot retraction assays were done in 1 ml volumes containing 800 μl PBS and 200 μl PRP plus 10 μl red blood cells to enhance contrast. Samples were pretreated with FN-439 (5 μM), MMP9/13 Inh (10 nM) or RWJ-56110 (1 μM) for 15 min and clot formation was initiated with 1-20 μg/ml type I fibrillar collagen. Samples were incubated at 37° C. for 90 or 240 min and then photographed with a digital camera. Each photograph in FIG. 6I is representative of three independent experiments.

[4] = Carotid artery FeCl3 injury arterial thrombosis model; type: in vivo, guinea pig; details: RWJ-56110 0.5 mg/kg; P1pal-7 0.13 mg/kg i.v.
Excerpt: To assess the efficacy on arterial thrombosis by blockade of thrombin, MMP-1, or PAR1, a standard carotid artery FeCl3 injury model was used in guinea pigs. FeCl3 causes denudation of the artery and exposure of type I collagen and other subendothelial matrix proteins. The effects of blocking thrombin with bivalirudin, MMP-1 with FN-439, and PAR1 with either the small molecule antagonist RWJ-56110 or the P1pal-7 pepducin on arterial thrombosis were then compared using a dopier probe.
For these arterial thrombosis experiments, 10 min after i.v. administration of vehicle (−), bivalirudin, RWJ-56110, P1 pal-7 or FN-439 (n=4-5) through the jugular vein at the indicated concentrations, the right carotid arteries were injured for 20 min using a 24 mm^2 piece of Bio-Rad Trans-Blot paper soaked in 20% FeCl3. Arterial flow 5 mm distal to the site of injury was measured with a 0.5 V Doppler probe (Transonic Systems). An arterial occlusion was defined as a flow rate of <0.01 V for ≧5 min. Doppler measurements were terminated at the 30 min time point following injury (* designates p<0.05).

PAR1 [5] = target: T1, PAR1 (Homo sapiens, UniProt P25116); test: Platelet shape change (decrease in light transmittance); type: cell-based; details: 1 μM RWJ-56110
T1 construct: able to cleave PAR1 on the surface of human platelets; endogenous in cells; host or cells: gel-filtered or washed human platelets
T1 sequence (P25116 22-425): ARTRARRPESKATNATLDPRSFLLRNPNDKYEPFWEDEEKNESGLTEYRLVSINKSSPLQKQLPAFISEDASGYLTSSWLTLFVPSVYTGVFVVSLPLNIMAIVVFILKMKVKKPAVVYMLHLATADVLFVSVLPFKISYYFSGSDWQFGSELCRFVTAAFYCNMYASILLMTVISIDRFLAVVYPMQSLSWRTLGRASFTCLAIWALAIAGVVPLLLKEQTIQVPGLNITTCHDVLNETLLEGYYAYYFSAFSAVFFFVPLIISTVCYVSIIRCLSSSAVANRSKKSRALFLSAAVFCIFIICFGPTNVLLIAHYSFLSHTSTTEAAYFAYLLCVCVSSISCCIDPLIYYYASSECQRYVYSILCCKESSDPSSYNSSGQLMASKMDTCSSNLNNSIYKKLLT
Experimental: In FIG. 3C, the ability of the […] peptide (PR-TRAP) to induce a change in platelet shape was determined. Washed human platelets were pretreated with 2 mM EGTA and then treated with the indicated agonists in the presence or absence of 1 μM RWJ-56110 while stirring at 1100 rpm. The decrease in light transmittance is an indication of the platelet shape change reaction.
In FIG. 4B, the ability of MMP-1 to induce platelet shape change was determined. Washed human platelets were pretreated with 2 mM EGTA and then challenged with MMP-1 in the presence or absence of 1 μM RWJ-56110 while stirring at 1100 rpm. Shape change was measured as described above.

PAR1 [6] = target: T1, PAR1; test: MMP-1-induced platelet aggregation; type: cell-based; details: 1 μM RWJ-56110
Experimental: In FIG. 4D, the induction of platelet aggregation by MMP-1 was determined. Gel-filtered platelets were challenged with MMP-1 in the presence or absence (0.2% DMSO vehicle) of the PAR1 inhibitor 1 μM RWJ-56110.

PAR1 [7] = target: T1, PAR1; test: MMP-1-induced PAR1-dependent calcium flux in platelets; type: cell-based; details: RWJ-56110
Experimental: In FIG. 4C, the induction of PAR1-dependent calcium fluxes by MMP-1 was measured. Calcium flux measurements of gel filtered platelets following challenge with MMP-1 in the presence or absence of RWJ-56110 were performed at 25° C. with emission recorded at 510 nm and dual excitation at 340 and 380 nm as described (Kuliopulos. 1999).

PAR1 [8] = target: T1, PAR1; test: PAR1-dependent RhoA activation (Rho-GTP) in platelets by tethered-ligand peptides; type: cell-based; details: 1 μM RWJ-56110
Experimental: Gel-filtered human platelets, supplemented with 0.3 mg/mL fibrinogen, were treated with 0.2% DMSO vehicle, or 30 μM SFLLRN (TRAP), PR-TRAP or reversed peptide (RP-TRAP), for 5 min at 37° C. in presence or absence of 1 μM RWJ-56110 as indicated. Platelets were lysed and Rho-GTP and total Rho was determined by Western analysis as described in the Experimental Procedures. Western bands were quantified by densitometry and results expressed relative to fold-increase from basal.

p38 MAPK = test: Collagen-induced phospho-p38 MAPK in platelets (western blot); type: cell-based, human; details: 5 or 20 μg/ml collagen or 10 nM MMP-1; ARC 0.5 μM, aspirin 1 mM
Experimental: The effect of pharmacologic blockage of metalloproteases or PAR1 on collagen-dependent platelet aggregation was then tested (see FIG. 5). […] Platelets were pre-incubated for 5 min with the thrombin inhibitors PPACK (200 μM) or hirudin (1 U/ml), the Zn-chelator 1,10-phenanthroline (1,10-PA; 100 μM), the broad spectrum metalloprotease inhibitor MMP-200 (200 nM), the MMP-1 inhibitor FN-439 (3 μM), the PAR1 ligand binding site inhibitor RWJ-56110 (1 μM), the PAR1 blocking antibody (75 μg/ml), the PAR1 pepducin lipopeptides P1pal-12 (3 μM) or P1pal-7 (3 μM), the PAR4 pepducin lipopeptide P4pal-10 (3 μM), MMP-8 inhibitor (25 nM) or MMP9/13 inhibitor (10 nM).
In FIG. 5B, platelets were treated as in FIG. 5A and then lysed with Laemmli sample buffer 5 min after addition of collagen, p38 MAPK activity was then assessed by western blot with a p38 MAPK phospho-Ab and total p38 loading was determined using a p38 MAPK antibody.

platelets [9] = test: Platelet thrombus formation on collagen surface under arterial flow, CTI-anticoagulated whole blood; type: cell-based, human; details: CTI 30 μg/mL, hirudin 0.0013 U/mL, aspirin 1 mM
Experimental: Collagen-activated platelets also provide a pro-coagulant surface and produce tissue factor, which aids in the production of thrombin (Giesen at al., 1999; Mackman, 2004; Schwertz et al., 2006).
Whole blood was anti-coagulated with CTI (30 μg/mL) to block the contact pathway, otherwise the experiments were conducted identically as in FIG. 6A. Hirudin was used as indicated at 0.0013 UImL.

Rho-GTP = test: Collagen-induced Rho-GTP activity in platelets (western blot); type: cell-based, human; details: 5 or 20 μg/ml collagen or 10 nM MMP-1; ARC 0.5 μM, aspirin 1 mM
Experimental: In FIG. 5C, platelets were treated as in FIG. 5B and then Rho GTP activity was assessed by western blot.
Representative blots are shown at the bottom of FIGS. 5B-D. Data are the mean±s.d. of three experiments. P*<0.01, #<0.05.

PAR1 [10] = test: Release of PAR1 N-terminal cleavage peptide from gel-filtered platelets (dot blot, IIaR-A antibody); type: cell-based, human; details: 5 μg/ml collagen, 10 min, 37° C.; Ab 20 μg/ml; ARC 0.5 μM; ASA 1 mM
Excerpt: To further understand how collagen is able to activate significant amounts of endogenous MMP-1 collagenase activity on the surface of platelets, experiments were devised to determine if PAR-1 is cleaved in either an autocrine or paracrine manner following exposure to collagen. Using a monoclonal antibody raised against the amino-terminal thrombin-cleavage peptide region of PAR1, residues 32-46 (Loew et al., 2000), the relative abilities of thrombin, MMP-1 and collagen to cause cleavage of platelet PAR1 was assessed. Gel filtered platelets were treated for 10 min with thrombin (3 nM), MMP-1 (3 nM), collagen (5 μg/ml), in the presence or absence (PBS buffer) of 0.00013 U hirudin or 5 μM FN-439 at 37° C. Supernatants were concentrated 20-fold and applied to nitrocellulose membranes, then probed with the IIaR-A monoclonal antibody. The PAR1 N-terminal thrombin deavage peptide (A26-R41) and PAR1 flexible linker peptide (N-acetyl-T67-L84 -C) (Kuliopulos et al., 1999) served as positive and negative controls (100 ng), respectively.
These platelets were then stimulated with collagen (5 μg/ml) for 10 min. at 37° C. Supernatants were concentrated 20-fold and applied to nitrocellulose membranes, then probed with the IIaR-A monoclonal antibody. […] FN-439, or an MMP1-blocking antibody (20 μg/ml) but not by thrombin inhibitor, hirudin (see FIG. 1E, FIG. 1G).

| SMILES | attenuation of growth rate and size of platelet aggregate strings (platelets [1]) | inhibition (loss) of collagen-induced platelet aggregation (platelets [2]) | block of collagen-activation of phospho-MAPKAP-K2 (MAPKAP-K2) | inhibition of clot formation and retraction (platelets [3]) | effect on mean occlusion time [4] | block of PR-TRAP-induced platelet shape change (PAR1 [5]) | inhibition of MMP-1-elicited platelet shape change (PAR1 [5]) | inhibition of MMP-1-elicited platelet aggregation (PAR1 [6]) | inhibition of MMP-1-elicited calcium mobilization (PAR1 [7]) | block of signaling induced by PR-TRAP (PAR1 [8]) | effect on activation of phospho-p38 MAPK (p38 MAPK) | effect on size of platelet micro-thrombi on collagen surfaces (platelets [9]) | effect on activation of Rho-GTP (Rho-GTP) | block of collagen-induced release of PAR1 N-terminal peptide (PAR1 [10]) |
| --- | --- | --- | --- | --- | --- | --- | --- | --- | --- | --- | --- | --- | --- | --- |
| NCC[C@H](NC(=O)[C@H](Cc1ccc(F)c(F)c1)NC(=O)Nc1ccc2c(CN3CCCC3)cn(Cc3c(Cl)cccc3Cl)c2c1)C(=O)NCc1ccccc1 [RWJ-56110] | ~75% | 50% | blocked | nearly identical pattern of inhibition | did not appreciably affect | completely blocked | inhibited | inhibited | inhibited | completely blocked | – | – | – | – |
| CC(=O)Oc1ccccc1C(=O)O [aspirin] | little or no effect | – | – | – | – | – | – | – | – | – | no effect | did not affect | no effect | no effect |

Source: US9376499B2, “PAR-1 activation by metalloproteinase-1 (MMP-1)” (Tufts Medical Center, Inc., priority 2009, dated 2016)
